One experiment concerns the target T1, gastric H^+,K^+ -ATPase (Sus scrofa, UniProt P19156).
T1 construct: from tissue; host or cells: hog stomach, purified membrane fraction (GI fraction of Saccomani et al. 1977)
Put plainly: In vitro inhibition of gastric H+,K+-ATPase. Format: biochemical. The settings on record: hog gastric membrane, pH 7.4, 30 min incubation, negative log of concentration (M) giving 50% inhibition. Here is the method: I. In vitro inhibition of gastric H^+,K^+ -ATPase
Hog gastric H^+,K^+ -ATPase was purified according to Saccomani et al., Biochim. Biophys. Acta 465, 311-330, 1977. 10 μg of membrane protein (GI-fraction in the reference listed above) was incubated with 2 mmol/l of piperazine-N,N'bis-(2-ethane sulfonic acid) buffer pH 7.4 and the test compound in concentrations 10^-7 -10^-4 M in a final volume of 1 ml. (The test compound was dissolved in methanol. Aliquots of these stock solutions were diluted to a final methanol concentration below 1%, which on its own had no effect on the enzyme activities.) After 30 minutes of incubation, the remaining H^+,K^+ -ATPase activity was determined, according to Wallmark et al., Biochim. Biophys. Acta, 728, 31-38, 1983. A dose-response curve was constructed and the concentration at half-maximal inhibition (IC50) could be determined.
pIC50 is the negative logarithm of the concentration (in M) of the test compound giving 50% inhibition.

In the next experiment the test system is gastric acid secretion. Kind of experiment: Inhibiting effect in vivo on gastric acid secretion in conscious dog. Particulars: conscious chronic gastric fistula dog, oral by stomach tube, histamine-induced secretion, 1 h after dosing, peak inhibitory effect. Here is the method:
II. Inhibiting effect in vivo on gastric acid secretion in conscious dog
Chronic gastric fistula dogs were used. These dogs have been surgically provided with a gastric cannula in the stomach and a duodenal fistula used for direct intraduodenal administration of test compounds. Following a 4 week's recovery period after surgery, tests were performed once a week on each dog. Food and water were withdrawn 18 hours before each test.
The test compound dissolved in 5% ethanol in 0.5% Methocel® (90 HG, 15.000, Dow Chem Corp.) was administered orally by using a stomach tube. After 1 hour gastric acid secretion was induced by continuous infusion of histamine at individual doses (400-600 nmol/kg, h), resulting in approx. 90% of maximal secretion of gastric acid. The gastric juice was collected by free flow from the gastric cannula in consecutive 30 minutes samples for 2 hours. The samples were titrated to pH 7.0 with 0.1M NaOH using a Radiometer automatic titrator and the acid output was calculated. The percent inhibition of acid secretion was calculated by comparing in each dog the acid output in the test to the acid output in control tests when only the vehicle was given. The peak inhibitory effect for each compound was determined.

Experiment [1] concerns ethanol-induced gastric lesions. Put plainly: In vivo cytoprotective effect: effect on ethanol-induced gastric lesions in the rat. Also on record: species or system rat (female Spraque-Dawley). Particulars: oral, 30 min before 1 ml absolute ethanol, dose giving 50% reduction of total lesion length vs control (11.0 cm); for ED50: Rattus norvegicus, read-out: III Rat Cytoprot. ED50. Here is the method: III. In vivo cytoprotective effect: Effect on ethanol-induced gastric lesions in the rat
Two groups of female Spraque-Dawley rats (190-220 g) were used, one for the test compound and one for the control experiment. Food, but not water, was removed 24 h before the experiments.
The animals in the test group were treated orally with the test compound dissolved in 10% ethanol in 0.5% Methocel® immediately before use and the animals in the control group were given the vehicle only in a dose of 2.5 ml/kg.
Thirty minutes later the rats were given orally 1 ml of absolute ethanol (a standard agent for inducing gastric mucosal lesions).
Sixty minutes later the rats were killed by carbon dioxide asphyxiation, their stomachs dissected out and the gastric mucosae were examined for the presence of necrotic lesions. The total lengths of the lesions in the stomachs were measured in the test group and in the control group, in both cases treated thirty minutes before with ethanol.
The ED50 -value represents the dose of the compound giving 50% reduction of the total lengths of lesions compared to the total lengths of lesions of the control experiment (11.0 cm).

T1 sequence (P19156 2-1034 limits assumed): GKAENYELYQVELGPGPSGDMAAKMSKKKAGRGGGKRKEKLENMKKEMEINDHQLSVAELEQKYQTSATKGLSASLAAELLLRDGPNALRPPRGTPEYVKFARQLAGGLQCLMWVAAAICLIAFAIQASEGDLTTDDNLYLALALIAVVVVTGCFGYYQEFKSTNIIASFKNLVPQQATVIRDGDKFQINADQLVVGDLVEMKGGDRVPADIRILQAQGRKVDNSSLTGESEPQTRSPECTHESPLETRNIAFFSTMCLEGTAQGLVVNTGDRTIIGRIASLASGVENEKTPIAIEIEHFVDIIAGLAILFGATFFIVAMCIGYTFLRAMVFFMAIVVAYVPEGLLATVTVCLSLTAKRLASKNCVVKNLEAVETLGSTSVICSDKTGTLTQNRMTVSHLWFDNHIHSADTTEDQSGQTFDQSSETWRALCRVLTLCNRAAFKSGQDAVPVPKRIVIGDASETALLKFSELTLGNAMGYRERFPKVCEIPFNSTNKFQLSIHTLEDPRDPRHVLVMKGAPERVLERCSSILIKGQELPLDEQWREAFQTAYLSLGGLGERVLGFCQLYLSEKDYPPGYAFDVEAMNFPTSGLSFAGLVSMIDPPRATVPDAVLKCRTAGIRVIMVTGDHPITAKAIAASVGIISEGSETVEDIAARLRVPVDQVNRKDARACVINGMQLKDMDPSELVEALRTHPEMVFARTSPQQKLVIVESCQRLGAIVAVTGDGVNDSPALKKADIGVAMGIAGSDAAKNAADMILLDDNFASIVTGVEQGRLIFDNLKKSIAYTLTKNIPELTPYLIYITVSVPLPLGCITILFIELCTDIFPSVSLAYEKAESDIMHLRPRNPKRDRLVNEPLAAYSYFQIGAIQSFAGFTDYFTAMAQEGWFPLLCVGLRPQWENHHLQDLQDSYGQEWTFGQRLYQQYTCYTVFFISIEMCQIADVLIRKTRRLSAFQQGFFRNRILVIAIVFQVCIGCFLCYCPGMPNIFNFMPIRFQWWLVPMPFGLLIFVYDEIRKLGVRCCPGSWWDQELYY
T1 sequence (P18434 whole entry partner): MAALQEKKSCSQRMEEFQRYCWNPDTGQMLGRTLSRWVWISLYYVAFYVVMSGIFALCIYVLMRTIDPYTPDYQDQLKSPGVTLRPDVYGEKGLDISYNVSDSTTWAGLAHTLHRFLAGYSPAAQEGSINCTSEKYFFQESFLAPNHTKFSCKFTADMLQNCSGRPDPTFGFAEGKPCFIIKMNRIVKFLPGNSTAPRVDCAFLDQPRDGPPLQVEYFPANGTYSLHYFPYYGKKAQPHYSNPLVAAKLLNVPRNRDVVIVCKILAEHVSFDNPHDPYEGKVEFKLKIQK

As to `COc1ccc2[nH]c(-[n+]3cc(C)c(OC)c(C)c3CSSCCO)nc2c1.[O-][Cl+3]([O-])([O-])[O-]` [Example 1, 3,5-dimethyl-4-methoxy-2-[(2-hydroxyethyl)dithiomethyl]-1-(5-methoxy-2-benzimidazolyl)-pyridiniumperchlorate], the “I Enzyme pIC50” value on gastric H^+,K^+ -ATPase was 5.0. In the experiment on gastric acid secretion, the “II Dog Gast. acid secr. inhib. ED50” value is 6 µmol/kg. For the same compound, the “III Rat Cytoprot. ED50” value in experiment [1] was 15 µmol/kg.

As for `COc1ccc2[n-]c(-[n+]3cc(C)c(OC)c(C)c3CSSCC(=O)O)nc2c1` [Example 7], the IC50 on gastric H^+,K^+ -ATPase (read-out: I Enzyme pIC50 (converted)) was 3.16e-05 M. Moreover, in experiment [1], the ED50 came out at 30 µmol/kg.

Consider `COc1c(C)c[n+](-c2nc3ccccc3[n-]2)c(CSC#N)c1C` [Example 14], for which the ED50 in the experiment on gastric acid secretion (Canis lupus familiaris, read-out: II Dog Gast. acid secr. inhib. ED50) worked out at 9 µmol/kg; in experiment [1], 20 µmol/kg.

One may read the ED50 as the dose that gives a 50% effect, or the effect in half of the subjects.

The record behind these values is US4689331A, “Substituted 2-pyridinyl benzimidazoles, and their use for inhibiting gastric acid secretion” (priority 1984, dated 1987).
